Tests used:
[1] = test system: HMOX1 gene (luciferase reporter); assay: Luciferase expression assay in HMOX1-luciferase knock-in HaCaT monoclone No. 38 (detection of compound sensitization); assay type: cell-based; conditions: human, HMOX1-luciferase knock-in HaCaT cells, clone No. 38, detection range of concentration 4 μM˜1000 μM, 48 h incubation, compared with negative control group, read-out: expression of luciferase (fold induction), highest reached
Protocol: 4. Analysis of sensitization of compounds after gene knock-in Sensitization of compounds was detected using clone No. 38.
Pre-cultured cells were centrifuged followed by removal of the supernatant, and were resuspended in fresh complete medium. The cell concentration was calculated with a cell counter after dilution for 10 times, and finally was adjusted to 50,000 cells/well. 200 μL of the cell solution was added to each well of a white opaque 96-well plate to ensure that the number of cells per well was substantially the same. The cell was incubated for 24 h at 37° C. in a 5% CO2 incubator. After 24 h, the medium was removed, and a working solution was prepared with 1% FBS medium. […] After 48 h, luciferase expression was measured and cell viability was detected using MTT.
• (1) 48 hours after treatment, the medium containing the reagent was discarded, and the plate was washed twice with PBS; • (2) 100 μL of PBS was added to each well, and then an equal volume of the luciferase substrate was added; • (3) The plate was shaken at 200 rpm for 2 min to fully lyse the cells; • (4) A Tecan Infinite® 200 Pro multi-function microplate reader selecting luminescence, integration 0.5s was used and the reading was recorded. […]

HMOX1 gene target site = assay: T7EI digestion identification of target site cleavage by sgRNA co-transfected with hCas9 into 293T cells; assay type: cell-based; conditions: co-transfected with hCas9 plasmid, 72 hours, FIG. 1
Protocol: sgRNA-1, sgRNA-10, sgRNA-13 plasmid and hCas9 plasmid were co-transfected into 293T cells respectively. After 72 hours, the genome was extracted and expanded with the primers in Table 2 on the target site, and the PCR product was identified by T7EI digestion.
The sgRNA-1, sgRNA-10, and sgRNA-13 plasmids were co-transfected into the 293T cells with a H-Cas9 plasmid (using liposome transfection), and the transfection steps were as follows: • (1) The prior medium was discarded, and 2 mL of fresh medium for incubation was added; • (2) 0.5 μg of the sgRNA recombinant plasmid and 0.5 μg of the hCas9 plasmid were dissolved in 100 μL of DMEM (H), 3 μL of a liposome transfection reagent was diluted to 100 μL, and the diluted liposome transfection reagent was added to the diluted plasmid solution. The mixture was gently blew evenly, formulated into a transfection complex, and reacted at room temperature for 15 min; • (3) The transfection complex was dropped into 6 wells, and reacted at 37° C. for 5 h. Then the reaction solution was discarded, and fresh medium was added for cultivation. Genome Extraction Process
PCR amplification of sgRNA-1, sgRNA-10, and sgRNA-13 was carried out using the extracted genome after transfection as a template; PCR amplification was performed using the wild type (WT) as a template and primers with SEQ ID NO: 6-7 as shown in Table 2. […]

Compound: OCC=Cc1ccccc1 [cinnamyl alcohol]
- fold induction at 48 h [1]: ≤ 21

Compound: sgRNA-13: specific sgRNA near the stop codon of HMOX1 gene, sequence GCTTTATGCCATGTGAATGCAGG, Exon 5 (expressed or natural sequence; the letters are possibly those of the target site)
- cleavage of the target site (T7EI digestion) (HMOX1 gene target site): can effectively cleave the target site

Compound: sgRNA-1: specific sgRNA near the stop codon of HMOX1 gene, sequence TTAACAGGTGGGCGTGCATCAGG, Exon 5 (expressed or natural sequence)
- cleavage of the target site (T7EI digestion) (HMOX1 gene target site): can effectively cleave the target site

Compound: Sc1nc2ccccc2s1 [2-mercaptobenzothiazole]
- fold induction at 48 h [1]: ≤ 30
